How the values were obtained:
Type in all cases: in vivo
[1] = test system: Monochoria vaginalis; assay: Test Example 1: herbicidal activity, application before weed generation in submerged conditions (symbol C); settings: application herbicide amount 320 g/ha
How it was run: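 In a flooded pot test with alluvial soil, the emulsion-formulated compound was diluted with water to a predetermined amount and applied to the floodwater immediately on the sowing day. Pots were held in a greenhouse at 25–30 °C for 3 weeks before each weed was rated.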

[2] = test system: Echinochloa oryzacola Vasing.; assay: Test Example 2: herbicidal activity, application during weed generation in submerged conditions (symbol A); settings: Table 23; application herbicide amount 320 g/ha; grade 0-5 by criteria of Test Example 1
How it was run: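 Submerged alluvial soil (4 cm) sown with mixed seed; greenhouse 25–30° C. 1–2 leaf: diluted emulsion onto water surface, preset dose. Visual score, 3 wk.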

[3] = test system: Leptochloa chinensis; assay: Test Example 3: herbicidal effect by foliage application, Wagner pot (symbol D); settings: application herbicide amount 320 g/ha
How it was run: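 Steps: fill pot with alluvial soil; add water to 0.1–0.5 cm depth; sow weed and rice seed; grow 14 days at 25–30 °C; spray diluted emulsion over the leaves; rate effect after 3 weeks.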

[4] = test system: Digitaria ciliaris; assay: Test Example 4: herbicidal effect by soil treatment (symbol F)
How it was run: (§1)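 Seeds were sown in sterilized diluvial soil, covered with about 1.5 cm of soil, and the soil surface was sprayed with a water-diluted emulsion of the compound at a predetermined rate. Plants grew in a greenhouse at 25° C. to 30° C.; effects were scored visually 3 weeks after application.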

[5] = test system: Setaria viridis; assay: Test Example 4: herbicidal effect by soil treatment (symbol G)
How it was run: as §1

[6] = test system: Chenopodium album; assay: Test Example 4: herbicidal effect by soil treatment (symbol O)
How it was run: as §1

[7] = test system: Apera spica-venti; assay: Test Example 5: herbicidal effect by foliage application, plastic box (symbol L); settings: 320 g/ha, 3 weeks after application
How it was run: (§2)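 Herbicide, formulated as an emulsion and diluted in water, is sprayed onto the aerial parts of 14-day seedlings. These were grown at 25° C. to 30° C. in sterilized diluvial soil; effects are graded after 3 weeks.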

[8] = test system: Abutilon theophrasti; assay: Test Example 5: herbicidal effect by foliage application, plastic box (symbol M); settings: 320 g/ha, 3 weeks after application
How it was run: as §2

[9] = test system: Amaranthus retroflexus; assay: Test Example 5: herbicidal effect by foliage application, plastic box (symbol N); settings: 320 g/ha, 3 weeks after application
How it was run: as §2

[10] = test system: Chenopodium album; assay: Test Example 5: herbicidal effect by foliage application, plastic box (symbol O); settings: 320 g/ha, 3 weeks after application
How it was run: as §2

[11] = test system: Galium spurium; assay: Test Example 5: herbicidal effect by foliage application, plastic box (symbol Q); settings: 320 g/ha, 3 weeks after application
How it was run: as §2

[12] = test system: corn; assay: Test Example 5: effect on crop by foliage application, plastic box (symbol c); settings: 320 g/ha, 3 weeks after application
How it was run: (§3)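 In a plastic box 7 cm deep filled with sterilized diluvial soil, seeds of crops and weeds such as Digitaria ciliaris, Avena fatua and Amaranthus retroflexus are sown in spots and covered with about 1.5 cm of soil before greenhouse growth at 25–30° C.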

[13] = test system: soybean; assay: Test Example 5: effect on crop by foliage application, plastic box (symbol d); settings: 320 g/ha, 3 weeks after application
How it was run: as §3

[14] = test system: beet; assay: Test Example 5: effect on crop by foliage application, plastic box (symbol f); settings: 320 g/ha, 3 weeks after application
How it was run: as §3

[15] = test system: rapeseed; assay: Test Example 5: effect on crop by foliage application, plastic box (symbol g); settings: 320 g/ha, 3 weeks after application
How it was run: as §3

[16] = application herbicide amount 320 g/ha

Q: For Cc1cc(C)c(C2=C(O)CC(CC(=O)c3ccc(F)cc3)C2=O)c(C)c1 (stereo not drawn) [2-032], which “Herbicidal effect grade, C: Monochoria vaginalis” value [1] is on record?
A: 1 (Herbicidal ratio of 5% or higher and lower than 20%)

Q: And the “Herbicidal effect grade, A: Echinochloa oryzacola Vasing.” value [2]?
A: 4 (Herbicidal ratio of 70% or higher and lower than 90%)

Q: What about the “herbicidal effect on D (Leptochloa chinensis), grade 0-5” value [3] of the same compound?
A: 3 (Herbicidal ratio of 40% or higher and lower than 70%)

Q: What about the “F: Digitaria ciliaris, herbicidal effect grade” value [4, 16] of the same compound?
A: 4 (Herbicidal ratio of 70% or higher and lower than 90%)

Q: And the “G: Setaria viridis, herbicidal effect grade” value [5, 16]?
A: 5 (Herbicidal ratio of 90% or more (almost completely withered))

Q: What about the “O: Chenopodium album, herbicidal effect grade” value [6, 16] of the same compound?
A: 0 (Herbicidal ratio of 5% or lower (almost no effect))

Q: And the “L: Apera spica-venti, herbicidal effect grade” value [7]?
A: 5 (Herbicidal ratio of 90% or more (almost completely withered))

Q: What about the “M: Abutilon theophrasti, herbicidal effect grade” value [8] of the same compound?
A: 0 (Herbicidal ratio of 5% or lower (almost no effect))

Q: And the “N: Amaranthus retroflexus, herbicidal effect grade” value [9]?
A: 0 (Herbicidal ratio of 5% or lower (almost no effect))

Q: And the “O: Chenopodium album, herbicidal effect grade” value [10]?
A: 0 (Herbicidal ratio of 5% or lower (almost no effect))

Q: What about the “Q: Galium spurium, herbicidal effect grade” value [11] of the same compound?
A: 0 (Herbicidal ratio of 5% or lower (almost no effect))

Q: What about the “c: corn, effect on crop grade” value [12] of the same compound?
A: 1 (Herbicidal ratio of 5% or higher and lower than 20%)

Q: What about the “d: soybean, effect on crop grade” value [13] of the same compound?
A: 0 (Herbicidal ratio of 5% or lower (almost no effect))

Q: And the “f: beet, effect on crop grade” value [14]?
A: 0 (Herbicidal ratio of 5% or lower (almost no effect))

Q: And the “g: rapeseed, effect on crop grade” value [15]?
A: 4 (Herbicidal ratio of 70% or higher and lower than 90%)

Q: How did the “Herbicidal effect grade, C: Monochoria vaginalis” value [1] turn out when CON=C(C)CC1CC(OC(=O)c2ccc(C(F)(F)F)cc2)=C(c2c(C)cc(C)cc2C)C1=O (stereo not drawn) [1-149] was run?
A: 1 (Herbicidal ratio of 5% or higher and lower than 20%)

Q: What about the “Herbicidal effect grade, A: Echinochloa oryzacola Vasing.” value [2] of the same compound?
A: 5 (Herbicidal ratio of 90% or more (almost completely withered))

Q: What about the “herbicidal effect on D (Leptochloa chinensis), grade 0-5” value [3] of the same compound?
A: 5 (Herbicidal ratio of 90% or more (almost completely withered))

Q: What about the “F: Digitaria ciliaris, herbicidal effect grade” value ([4]; 320 g/ha) of the same compound?
A: 5 (Herbicidal ratio of 90% or more (almost completely withered))

Q: What about the “G: Setaria viridis, herbicidal effect grade” value ([5]; 320 g/ha) of the same compound?
A: 5 (Herbicidal ratio of 90% or more (almost completely withered))

Q: And the “O: Chenopodium album, herbicidal effect grade” value ([6]; 320 g/ha)?
A: 0 (Herbicidal ratio of 5% or lower (almost no effect))

Q: What about the “L: Apera spica-venti, herbicidal effect (criteria 0-5)” value [7] of the same compound?
A: 5 (Herbicidal ratio of 90% or more (almost completely withered))

Q: What about the “M: Abutilon theophrasti, herbicidal effect (criteria 0-5)” value [8] of the same compound?
A: 4 (Herbicidal ratio of 70% or higher and lower than 90%)

Q: What about the “N: Amaranthus retroflexus, herbicidal effect (criteria 0-5)” value [9] of the same compound?
A: 0 (Herbicidal ratio of 5% or lower (almost no effect))

Q: And the “O: Chenopodium album, herbicidal effect (criteria 0-5)” value [10]?
A: 2 (Herbicidal ratio of 20% or higher and lower than 40%)

Q: And the “Q: Galium spurium, herbicidal effect (criteria 0-5)” value [11]?
A: 3 (Herbicidal ratio of 40% or higher and lower than 70%)

Q: What about the “c: corn, effect on crop (criteria 0-5)” value [12] of the same compound?
A: 4 (Herbicidal ratio of 70% or higher and lower than 90%)

Q: What about the “d: soybean, effect on crop (criteria 0-5)” value [13] of the same compound?
A: 2 (Herbicidal ratio of 20% or higher and lower than 40%)

Q: What about the “f: beet, effect on crop (criteria 0-5)” value [14] of the same compound?
A: 2 (Herbicidal ratio of 20% or higher and lower than 40%)

Q: And the “g: rapeseed, effect on crop (criteria 0-5)” value [15]?
A: 4 (Herbicidal ratio of 70% or higher and lower than 90%)

From patent publication US11000033B2, “Ketone or oxime compound, and herbicide” (NISSAN CHEMICAL CORPORATION, priority 2014, dated 2021)
